SMILES: Cc1oc(-c2ccccc2)nc1COc1ccc(CN(C)c2nc(-c3ccccc3)c(CCC(=O)O)s2)cc1.Cl
- melting point: 106 to 108 °C

SMILES: Cc1oc(-c2ccccc2)nc1COc1ccc(CSc2nc(CCC(=O)O)n[nH]2)cc1 [Example 18, 3-[5-[4-(5-methyl-2-phenyl-4-oxazolylmethoxy)benzylthio]-1H-1,2,4-triazol-3-yl]propionic acid]
- melting point: 170 to 171 °C

SMILES: Cc1oc(-c2ccccc2)nc1COc1ccc(Sc2nc(CC(=O)O)cs2)cc1 [Example 19, [2-[4-(5-methyl-2-phenyl-4-oxazolylmethoxy)phenylthio]-4-thiazolyl]acetic acid]
- melting point: 180 to 181 °C

SMILES: Cc1oc(-c2ccccc2)nc1COc1ccc(COc2nn(Cc3ccccc3)cc2CCC(=O)O)cc1 [Example 20, 3-[1-benzyl-3-[-4-(5-methyl-2-phenyl-4-oxazolylmethoxy)benzyloxy]-1H-pyrazol-4-yl]propionic acid]
- melting point: 125 to 126 °C

SMILES: Cc1oc(-c2ccccc2)nc1CCOc1ccc(COc2nn(C)cc2CC(=O)O)cc1 [Example 22, [1-methyl-3-[4-[2-(5-methyl-2-phenyl-4-oxazolyl)ethoxy]benzyloxy]-1H-pyrazol-4-yl]acetic acid]
- melting point: 148 to 149 °C

SMILES: Cc1oc(-c2ccccc2)nc1COc1cc(COc2nn(C)cc2CC(=O)O)ccn1 [Example 28, [1-methyl-3-[2-(5-methyl-2-phenyl-4-oxazolylmethoxy)-4-pyridylmethoxy]-1H-pyrazol-4-yl]acetic acid]
- melting point: 126 to 127 °C

SMILES: Cc1oc(-c2ccccc2)nc1COc1cc(COc2nn(C)cc2CC(=O)O)on1 [Example 30, [1-methyl-3-[3-(5-methyl-2-phenyl-4-oxazolylmethoxy)-5-isoxazolylmethoxy]-1H-pyrazol-4-yl]acetic acid]
- melting point: 149 to 150 °C

SMILES: Cn1cc(CC(=O)O)c(OCc2cc(OCc3ccc4ccccc4n3)no2)n1 [Example 32, [1-methyl-3-[3-(2-quinolylmethoxy)-5-isoxazolylmethoxy]-1H-pyrazol-4-yl]acetic acid]
- melting point: 124 to 125 °C

SMILES: Cn1cc(CC(=O)O)c(OCc2ccc(OCc3csc(-c4ccccc4)n3)nc2)n1 [Example 34, [1-methyl-3-[6-(2-phenyl-4-thiazolylmethoxy)-3-pyridylmethoxy]-1H-pyrazol-4-yl]acetic acid]
- melting point: 156 to 157 °C

SMILES: Cc1sc(-c2ccccc2)nc1COc1ccc(COc2nn(C)cc2CC(=O)O)cn1 [Example 36, [1-methyl-3-[6-(5-methyl-2-phenyl-4-thiazolylmethoxy)-3-pyridylmethoxy]-1H-pyrazol-4-yl]acetic acid]
- melting point: 140 to 141 °C

SMILES: COc1cc(COc2nn(C)cc2CC(=O)O)ccc1OCc1nc(-c2ccccc2)oc1C [Example 42, [3-[3-methoxy-4-(5-methyl-2-phenyl-4-oxazolylmethoxy)benzyloxy]-1-methyl-1H-pyrazol-4-yl]acetic acid]
- melting point: 153 to 154 °C

SMILES: Cc1oc(-c2ccccc2)nc1COc1ccc(COc2nn(Cc3ccccc3)cc2CCC(=O)O)cn1 [Example 48, 3-[1-benzyl-3-[6-(5-methyl-2-phenyl-4-oxazolylmethoxy)-3-pyridylmethoxy]-1H-pyrazol-4-yl]propionic acid]
- melting point: 130 to 131 °C

SMILES: COC(=O)Cc1cn(-c2ccccc2)nc1OCc1ccc(OCc2nc(-c3ccccc3)oc2C)c(OC)c1 [Example 51, methyl [3-[3-methoxy-4-(5-methyl-2-phenyl-4-oxazolylmethoxy)benzyloxy]-1-phenyl-1H-pyrazol-4-yl]acetate]
- melting point: 107 to 108 °C

SMILES: COC(=O)Cc1cn(-c2ccccc2)nc1OCc1ccc(OCc2nc(-c3ccccc3)oc2C)nc1 [Example 53, methyl [3-[6-(5-methyl-2-phenyl-4-oxazolylmethoxy)-3-pyridylmethoxy]-1-phenyl-1H-pyrazol-4-yl]acetate]
- melting point: 96 to 97 °C

SMILES: COc1cc(COc2nn(-c3ccccc3)cc2CCC(=O)O)ccc1OCc1nc(-c2ccco2)oc1C [Example 56, 3-[3-[4-[2-(2-furyl)-5-methyl-4-oxazolylmethoxy]-3-methoxybenzyloxy]-1-phenyl-1H-pyrazol-4-yl]propionic acid]
- melting point: 161 to 162 °C

SMILES: Cc1oc(-c2ccccc2)nc1COc1ccc(CCc2oc(-c3ccccc3)nc2CCC(=O)O)cc1 [Example 65, 3-[5-[2-[4-(5-methyl-2-phenyl-4-oxazolyl)methoxyphenyl]ethyl]-2-phenyl-4-oxazolyl]propionic acid]
- melting point: 110 to 111 °C

SMILES: Cc1oc(-c2ccco2)nc1COc1ccc(Cc2nc(CCC(=O)O)c(-c3ccccc3)o2)cc1 [Example 67, 3-[2-[4-[2-(2-furyl)-5-methyl-4-oxazolylmethoxy]benzyl]-5-phenyl-4-oxazolyl]propionic acid]
- melting point: 154 to 155 °C

SMILES: Cc1oc(-c2ccco2)nc1COc1ccc(Cc2nc(-c3ccccc3)c(CCC(=O)O)o2)cc1 [Example 69, 3-[2-[4-[2-(2-furyl)-5-methyl-4-oxazolylmethoxy]benzyl]-4-phenyl-5-oxazolyl]propionic acid]
- melting point: 74 to 76 °C

SMILES: COc1cc(COc2nn(-c3ccccc3)cc2CC(=O)O)ccc1OCc1nc(-c2ccco2)oc1C [Example 73, [3-[4-[2-(2-furyl)-5-methyl-4-oxazolylmethoxy]-3-methoxybenzyloxy]-1-phenyl-1H-pyrazol-4-yl]acetic acid]
- melting point: 179 to 180 °C

SMILES: COc1cc(COc2nn(-c3ccccc3)cc2CC(=O)N2CCOCC2)ccc1OCc1nc(-c2ccco2)oc1C [Example 74, 4-[3-[4-[2-(2-furyl)-5-methyl1–4-oxazolylmethoxy]-3-methoxybenzyloxy]-1-phenyl-1H-pyrazol-4-yl]acetylmorpholine]
- melting point: 132 to 133 °C

SMILES: COc1cc(COc2cc(CC(=O)O)n(-c3ccccc3)n2)ccc1OCc1nc(-c2ccco2)oc1C [Example 77, [3-[4-[2-(2-furyl)-5-methyl-4-oxazolylmethoxy]-3-methoxybenzyloxy]-1-phenyl-1H-pyrazol-5-yl]acetic acid]
- melting point: 145 to 146 °C (dec.)

SMILES: COc1cc(COc2cc(CCC(=O)O)n(-c3ccccc3)n2)ccc1OCc1nc(-c2ccccc2)oc1C [Example 79, 3-[3-[3-methoxy-4-(5-methyl-2-phenyl-4-oxazolylmethoxy)benzyloxy]-1-phenyl-1H-pyrazol-5-yl]propionic acid]
- melting point: 157 to 158 °C

SMILES: Cc1oc(-c2ccccc2)nc1COc1ccc(COc2cc(CCC(=O)O)n(-c3ccccc3)n2)cc1 [Example 81, 3-[3-[4-(5-methyl-2-phenyl-4-oxazolylmethoxy)benzyloxy]-1-phenyl-1H-pyrazol-5-yl]propionic acid]
- melting point: 154 to 155 °C

SMILES: Cc1oc(-c2ccccc2)nc1COc1cccc(COc2cc(CCC(=O)O)n(-c3ccccc3)n2)c1 [Example 83, 3-[3-[3-(5-methyl-2-phenyl-4-oxazolylmethoxy)benzyloxy]-1-phenyl-1H-pyrazol-5-yl]propionic acid]
- melting point: 137 to 138 °C

Reference: patent US7241785B2, “Five-membered heterocyclic alkanoic acid derivative” (Takeda Pharmaceutical Company Limited, priority 2001, dated 2007)
